Data on one molecule can be found in ChEMBL document CHEMBL1127274, “Evaluation of (2S,4S)/(2R,4R) and (2S,4R)/(2R,4S) 6,6-N,N-dimethyl-2-methyl-2-oxo-1,3-dioxa-4-hexadecyl-6,aza-2-phosphacyclooctane bromide as inhibitors for protein kinase C, carnitine octanoyltransferase, and carnitine palmitoyltransferase” (Bioorg Med Chem Lett, 1994).

Assay [1] deals with T1, Peroxisomal carnitine O-octanoyltransferase (Homo sapiens, UniProt Q9UKG9).
T1 sequence (Q9UKG9 whole entry): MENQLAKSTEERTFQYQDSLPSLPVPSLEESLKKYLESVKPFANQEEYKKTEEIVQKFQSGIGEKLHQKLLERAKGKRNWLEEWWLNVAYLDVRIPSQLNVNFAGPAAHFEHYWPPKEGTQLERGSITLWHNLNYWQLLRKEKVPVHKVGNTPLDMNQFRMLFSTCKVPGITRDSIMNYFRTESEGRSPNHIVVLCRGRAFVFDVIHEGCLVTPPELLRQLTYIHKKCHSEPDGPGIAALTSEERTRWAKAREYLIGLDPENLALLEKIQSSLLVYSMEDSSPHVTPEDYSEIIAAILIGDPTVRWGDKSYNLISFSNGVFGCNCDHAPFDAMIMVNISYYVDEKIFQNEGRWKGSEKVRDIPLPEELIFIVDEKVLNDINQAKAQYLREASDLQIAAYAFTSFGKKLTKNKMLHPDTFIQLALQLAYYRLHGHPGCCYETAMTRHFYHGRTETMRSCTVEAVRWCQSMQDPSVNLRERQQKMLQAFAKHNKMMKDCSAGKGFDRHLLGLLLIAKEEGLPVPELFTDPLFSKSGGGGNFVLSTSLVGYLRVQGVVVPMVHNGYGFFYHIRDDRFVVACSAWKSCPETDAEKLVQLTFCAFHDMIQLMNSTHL
As to the kind of experiment: Inhibitory potency against carnitine octanoyltransferase (COT); Range = 1300-4000 uM.

The target in assay [2] is T2, Carnitine O-palmitoyltransferase 2, mitochondrial (Homo sapiens, UniProt P23786).
T2 sequence (P23786 whole entry): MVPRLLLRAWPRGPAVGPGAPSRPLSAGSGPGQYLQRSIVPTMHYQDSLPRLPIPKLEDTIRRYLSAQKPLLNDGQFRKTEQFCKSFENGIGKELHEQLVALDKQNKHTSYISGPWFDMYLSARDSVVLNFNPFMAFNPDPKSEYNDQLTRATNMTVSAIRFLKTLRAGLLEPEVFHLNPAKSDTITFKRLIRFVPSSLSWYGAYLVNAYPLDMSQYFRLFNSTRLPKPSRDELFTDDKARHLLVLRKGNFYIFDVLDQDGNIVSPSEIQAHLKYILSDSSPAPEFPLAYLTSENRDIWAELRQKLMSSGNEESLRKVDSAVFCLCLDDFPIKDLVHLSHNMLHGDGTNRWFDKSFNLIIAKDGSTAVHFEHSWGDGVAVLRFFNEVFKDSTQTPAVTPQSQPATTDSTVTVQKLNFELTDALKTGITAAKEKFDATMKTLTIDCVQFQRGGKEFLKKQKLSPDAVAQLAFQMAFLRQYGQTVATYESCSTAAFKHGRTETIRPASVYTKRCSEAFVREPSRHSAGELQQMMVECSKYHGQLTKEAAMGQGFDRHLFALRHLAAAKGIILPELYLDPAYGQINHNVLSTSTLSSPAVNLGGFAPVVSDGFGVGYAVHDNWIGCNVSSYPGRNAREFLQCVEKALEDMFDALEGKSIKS
As to the kind of experiment: Inhibitory potency against Carnitine Palmitoyltransferase (CPT-II); Range = 32-235 uM.

By IC50 is commonly meant the concentration needed to halve the response being measured. Low readings indicate inhibition by little substance, high ones a need for much substance. For the molecule `CCCCCCCCCCCCCCCC[C@@]1(O)C[N+](C)(C)CCO1`, the IC50 in assay [1] is 4 mM; in assay [2], 235 µM.
